Measurements from ChEMBL document CHEMBL2021850, “Steroidal C-21 heteroaryl thioethers. Part 3: pregn-4-eno-[3,2-c]pyrazole fused A ring modified steroids as selective glucocorticoid receptor modulators (dissociated steroids)” (Bioorg Med Chem Lett, 2012).

Assays:
Glucocorticoid receptor [1] = biological target: T1, Glucocorticoid receptor (Homo sapiens, UniProt P04150); assay: Transactivation activity at human glucocorticoid receptor in cells co-expressing GRE by luciferase reporter gene assay relative to control; settings: read-out: Efficacy
T1 sequence (P04150 whole entry): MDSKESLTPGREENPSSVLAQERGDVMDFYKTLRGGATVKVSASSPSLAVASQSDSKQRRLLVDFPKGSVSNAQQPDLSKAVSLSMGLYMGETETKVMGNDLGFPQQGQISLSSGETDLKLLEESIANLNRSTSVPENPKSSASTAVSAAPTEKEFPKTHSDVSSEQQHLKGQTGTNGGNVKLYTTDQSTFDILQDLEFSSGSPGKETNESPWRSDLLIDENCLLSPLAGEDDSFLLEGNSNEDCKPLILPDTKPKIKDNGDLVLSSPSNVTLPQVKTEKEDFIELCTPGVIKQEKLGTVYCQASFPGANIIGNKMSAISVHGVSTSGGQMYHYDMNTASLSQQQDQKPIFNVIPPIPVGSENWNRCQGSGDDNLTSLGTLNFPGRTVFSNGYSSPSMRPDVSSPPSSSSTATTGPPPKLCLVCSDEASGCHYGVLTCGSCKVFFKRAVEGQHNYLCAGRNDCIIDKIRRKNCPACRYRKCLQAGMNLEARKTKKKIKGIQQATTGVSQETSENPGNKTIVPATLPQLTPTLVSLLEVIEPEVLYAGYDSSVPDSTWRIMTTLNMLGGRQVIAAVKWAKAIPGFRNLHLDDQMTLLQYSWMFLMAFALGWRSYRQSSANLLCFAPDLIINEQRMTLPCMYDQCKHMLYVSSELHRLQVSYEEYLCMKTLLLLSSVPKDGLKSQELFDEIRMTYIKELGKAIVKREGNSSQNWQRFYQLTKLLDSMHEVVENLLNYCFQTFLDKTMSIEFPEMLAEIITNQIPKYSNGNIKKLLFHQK

Glucocorticoid receptor [2] = biological target: T1, Glucocorticoid receptor; assay: Transrepression activity at glucocorticoid receptor in human H292 cells assessed as inhibition of TNF-induced IL8 production; format: cell-based
Glucocorticoid receptor [3] = biological target: T1, Glucocorticoid receptor; assay: Transactivation activity at glucocorticoid receptor in human HepG2 cells assessed as induction of tyrosine aminotransferase; format: ADME, cell-based
Glucocorticoid receptor [4] = biological target: T2, Glucocorticoid receptor (Rattus norvegicus, UniProt P06536); assay: Transactivation activity at glucocorticoid receptor in rat H4II-E cells assessed as induction of tyrosine aminotransferase; format: ADME, cell-based
T2 sequence (P06536 whole entry): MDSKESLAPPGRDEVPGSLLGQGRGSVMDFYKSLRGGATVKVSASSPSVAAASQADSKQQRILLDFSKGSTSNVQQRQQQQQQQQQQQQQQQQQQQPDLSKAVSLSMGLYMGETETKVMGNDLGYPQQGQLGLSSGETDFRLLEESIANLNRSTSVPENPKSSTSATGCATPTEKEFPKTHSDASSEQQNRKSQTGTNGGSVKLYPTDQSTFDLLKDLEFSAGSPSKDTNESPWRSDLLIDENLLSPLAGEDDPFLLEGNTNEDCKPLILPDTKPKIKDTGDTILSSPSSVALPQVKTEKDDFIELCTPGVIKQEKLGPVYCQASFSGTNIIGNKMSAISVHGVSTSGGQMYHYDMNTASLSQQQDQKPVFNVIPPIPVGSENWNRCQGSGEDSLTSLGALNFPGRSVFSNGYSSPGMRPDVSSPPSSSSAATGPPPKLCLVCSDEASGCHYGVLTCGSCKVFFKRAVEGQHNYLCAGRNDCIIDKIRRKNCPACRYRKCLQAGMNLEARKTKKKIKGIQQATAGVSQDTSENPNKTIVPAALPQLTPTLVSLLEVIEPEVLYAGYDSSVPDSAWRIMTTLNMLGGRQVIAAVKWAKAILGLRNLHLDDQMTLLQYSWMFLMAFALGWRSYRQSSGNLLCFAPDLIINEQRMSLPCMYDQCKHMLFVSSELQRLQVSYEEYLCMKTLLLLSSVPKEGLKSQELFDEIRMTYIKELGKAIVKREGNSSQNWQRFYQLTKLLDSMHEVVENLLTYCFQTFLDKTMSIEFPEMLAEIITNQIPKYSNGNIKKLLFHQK

[5] = Cmax in po dosed rat; format: ADME, organism-based; design: route oral; settings: in vivo; note: test concentration or dose not given here
[6] = AUC in po dosed rat; format: ADME, organism-based; settings: plasma; note: test concentration or dose not given here
Glucocorticoid receptor [7] = biological target: T1, Glucocorticoid receptor; assay: Transactivation activity at human glucocorticoid receptor in cells co-expressing GRE by luciferase reporter gene assay; settings: read-out: IC50 (the source's name)

| Cmax [5] [ng/mL] | AUC [6] [ng·h/mL] | Structure (SMILES) | Emax (Glucocorticoid receptor [1]) [%] | IC50 (Glucocorticoid receptor [2]) [nM] | IC50 (Glucocorticoid receptor [3]) [nM] | IC50 (Glucocorticoid receptor [4]) [nM] | EC50 (Glucocorticoid receptor [7]) [nM] |
| --- | --- | --- | --- | --- | --- | --- | --- |
| – | – | C[C@]12CCC(=O)C=C1CC[C@@H]1[C@@H]2[C@@H](O)C[C@@]2(C)[C@H]1CC[C@]2(O)C(=O)CSc1nc2ccccc2s1 | 30 | – | – | – | – |
| – | – | C[C@]12Cc3cnn(-c4ccc(F)cc4)c3C=C1CC[C@@H]1[C@@H]2[C@@H](O)C[C@@]2(C)[C@H]1CC[C@]2(O)C(=O)CSc1ccc2ccccc2c1 | – | 0.72 | 30.5 | 52.5 | – |
| – | – | C[C@]12Cc3cnn(-c4ccc(F)cc4)c3C=C1CC[C@@H]1[C@@H]2[C@@H](O)C[C@@]2(C)[C@H]1CC[C@]2(O)C(=O)CSc1nc2ccccc2s1 | – | 1.7 | 101 | 24.1 | – |
| – | – | C[C@]12Cc3cnn(C4CCCCC4)c3C=C1CC[C@@H]1[C@@H]2[C@@H](O)C[C@@]2(C)[C@H]1CC[C@]2(O)C(=O)CSc1ccccn1 | 87 | 4.4 | – | – | – |
| – | – | Cn1c(OCC(=O)[C@@]2(O)CC[C@H]3[C@@H]4CCC5=Cc6c(cnn6-c6ccc(F)cc6)C[C@]5(C)[C@H]4[C@@H](O)C[C@@]32C)nc2ccccc21 | – | 2.9 | – | 78 | – |
| – | – | C[C@]12Cc3cnn(-c4ccc(F)cc4)c3C=C1CC[C@@H]1[C@@H]2[C@@H](O)C[C@@]2(C)[C@H]1CC[C@]2(O)C(=O)CSc1ncccn1 | – | 0.6 | 37.7 | 14.3 | – |
| – | – | C[C@]12CCC(=O)C=C1CC[C@@H]1[C@@H]2[C@@H](O)C[C@@]2(C)[C@H]1CC[C@]2(O)C(=O)CSc1nnc(-c2ccccc2)o1 | 54 | 29.2 | – | – | – |
| – | – | C[C@]12Cc3cnn(-c4ccc(F)cc4)c3C=C1CC[C@@H]1[C@@H]2[C@@H](O)C[C@@]2(C)[C@H]1CC[C@]2(O)C(=O)CSc1ccc2ccccc2n1 | – | 5.3 | 18.3 | 24.3 | – |
| 628 | 2480 | C[C@]12Cc3cnn(-c4ccccc4)c3C=C1CC[C@@H]1[C@@H]2[C@@H](O)C[C@@]2(C)[C@H]1CC[C@]2(O)C(=O)CO | – | 0.63 | 143 | 3.23 | – |
| – | – | C[C@]12Cc3cnn(-c4ccc(F)cc4)c3C=C1CC[C@@H]1[C@@H]2[C@@H](O)C[C@@]2(C)[C@H]1CC[C@]2(O)C(=O)CSc1nc2ccccc2c(=O)[nH]1 | – | 3 | 93.5 | 86.5 | – |
| – | – | C[C@]12Cc3cnn(C4CCCCC4)c3C=C1CC[C@@H]1[C@@H]2[C@@H](O)C[C@@]2(C)[C@H]1CC[C@]2(O)C(=O)CSc1ncccn1 | 76 | 7.3 | 1000 | – | 137 |
| – | – | C[C@]12Cc3cnn(-c4ccc(F)cc4)c3C=C1CC[C@@H]1[C@@H]2[C@@H](O)C[C@@]2(C)[C@H]1CC[C@]2(O)C(=O)CSc1ccccn1 | – | 0.5 | 4.7 | 4.5 | – |
| – | – | Cn1c(SCC(=O)[C@@]2(O)CC[C@H]3[C@@H]4CCC5=Cc6c(cnn6-c6ccc(F)cc6)C[C@]5(C)[C@H]4[C@@H](O)C[C@@]32C)nc2ccccc21 | – | 1.1 | 88.7 | 174 | – |
| – | – | C[C@]12CCC(=O)C=C1CC[C@@H]1[C@@H]2[C@@H](O)C[C@@]2(C)[C@H]1CC[C@]2(O)C(=O)CSc1ccc(Cl)c(Cl)c1 | 28 | 27.2 | – | – | – |
| – | – | C[C@]12Cc3cnn(C4CCCCC4)c3C=C1CC[C@@H]1[C@@H]2[C@@H](O)C[C@@]2(C)[C@H]1CC[C@]2(O)C(=O)CO | 96 | 2.37 | – | – | 5.57 |
| – | – | Cn1c(SCC(=O)[C@@]2(O)CC[C@H]3[C@@H]4CCC5=Cc6c(cnn6C6CCCCC6)C[C@]5(C)[C@H]4[C@@H](O)C[C@@]32C)nc2ccccc21 | 75 | 6.6 | – | 1000 | – |
| – | – | C[C@]12Cc3cnn(C4CCOCC4)c3C=C1CC[C@@H]1[C@@H]2[C@@H](O)C[C@@]2(C)[C@H]1CC[C@]2(O)C(=O)CSc1nc2ccccc2s1 | – | 86.4 | – | – | – |

| Cmax [5] [ng/mL] | AUC [6] [ng·h/mL] | Structure (SMILES) | Emax (Glucocorticoid receptor [1]) [%] | IC50 (Glucocorticoid receptor [2]) [nM] | IC50 (Glucocorticoid receptor [3]) [nM] | IC50 (Glucocorticoid receptor [4]) [nM] | EC50 (Glucocorticoid receptor [7]) [nM] |
| --- | --- | --- | --- | --- | --- | --- | --- |
| – | – | C[C@]12Cc3cnn(-c4ccccc4)c3C=C1CC[C@@H]1[C@@H]2[C@@H](O)C[C@@]2(C)[C@H]1CC[C@]2(O)C(=O)CSc1nc2ccccc2s1 | 89 | 7.5 | 165 | 57.3 | – |
| – | – | C[C@]12Cc3cnn(-c4ccc(F)cc4)c3C=C1CC[C@@H]1[C@@H]2[C@@H](O)C[C@@]2(C)[C@H]1CC[C@]2(O)C(=O)COc1nc2ccccc2s1 | – | 2.1 | – | 84 | – |
| – | – | C[C@]12CCC(=O)C=C1CC[C@@H]1[C@@H]2[C@@H](O)C[C@@]2(C)[C@H]1CC[C@]2(O)C(=O)CSc1nc2ncccc2o1 | 37 | 61.3 | – | – | – |
| – | – | C[C@]12Cc3cnn(C4CCCCC4)c3C=C1CC[C@@H]1[C@@H]2[C@@H](O)C[C@@]2(C)[C@H]1CC[C@]2(O)C(=O)CSc1cnc2ccccc2n1 | 84 | 12.4 | – | – | – |
| 240 | 1040 | C[C@]12Cc3cnn(-c4ccc(F)cc4)c3C=C1CC[C@@H]1[C@@H]2[C@@H](O)C[C@@]2(C)[C@H]1CC[C@]2(O)C(=O)CO | – | 0.4 | 40.9 | 3.2 | – |
| – | – | C[C@]12Cc3cnn(-c4ccc(F)cc4)c3C=C1CC[C@@H]1[C@@H]2[C@@H](O)C[C@@]2(C)[C@H]1CC[C@]2(O)C(=O)COc1cnc2ccccc2n1 | – | 1.89 | 98.7 | – | – |
| – | – | C[C@]12Cc3cnn(-c4ccc(F)cc4)c3C=C1CC[C@@H]1[C@@H]2[C@@H](O)C[C@@]2(C)[C@H]1CC[C@]2(O)C(=O)COc1ccc2ccccc2c1 | – | 1.06 | 29.2 | 58 | – |
| – | – | C[C@]12Cc3cnn(-c4ccccn4)c3C=C1CC[C@@H]1[C@@H]2[C@@H](O)C[C@@]2(C)[C@H]1CC[C@]2(O)C(=O)CSc1nc2ccccc2s1 | – | 179 | – | – | – |
| – | – | C[C@]12Cc3cnn(-c4ccc(F)cc4)c3C=C1CC[C@@H]1[C@@H]2[C@@H](O)C[C@@]2(C)[C@H]1CC[C@]2(O)C(=O)CSc1nccc2ccccc12 | – | 1.6 | 37.3 | 65.4 | – |
| – | – | C[C@]12Cc3cnn(-c4ccc(F)cc4)c3C=C1CC[C@@H]1[C@@H]2[C@@H](O)C[C@@]2(C)[C@H]1CC[C@]2(O)C(=O)COc1ccc2ccccc2n1 | – | 1.8 | – | 44.7 | – |
| – | – | COc1ccc(-n2ncc3c2C=C2CC[C@@H]4[C@H]([C@@H](O)C[C@@]5(C)[C@H]4CC[C@]5(O)C(=O)CSc4nc5ccccc5s4)[C@@]2(C)C3)cc1 | – | 107 | – | – | – |
| – | – | C[C@]12Cc3cnn(-c4ccccc4)c3C=C1CC[C@@H]1[C@@H]2[C@@H](O)C[C@@]2(C)[C@H]1CC[C@]2(O)C(=O)COc1cnc2ccccc2n1 | 56 | 3.7 | – | – | – |
| – | – | Cc1cccc(SCC(=O)[C@@]2(O)CC[C@H]3[C@@H]4CCC5=CC(=O)CC[C@]5(C)[C@H]4[C@@H](O)C[C@@]32C)n1 | 18 | 127 | – | – | – |
| – | – | C[C@]12Cc3cnn(C4CCCCC4)c3C=C1CC[C@@H]1[C@@H]2[C@@H](O)C[C@@]2(C)[C@H]1CC[C@]2(O)C(=O)CSc1nc2ccccc2s1 | 78 | 7.1 | 400 | 54.7 | – |
| – | – | C[C@]12Cc3cnn(C4CCCCC4)c3C=C1CC[C@@H]1[C@@H]2[C@@H](O)C[C@@]2(C)[C@H]1CC[C@]2(O)C(=O)CSc1nc2ccccc2o1 | 72 | 3.12 | 82.1 | 31.6 | – |
| – | – | C[C@]12Cc3cnn(C4CCCCC4)c3C=C1CC[C@@H]1[C@@H]2[C@@H](O)C[C@@]2(C)[C@H]1CC[C@]2(O)C(=O)CSc1ccc2ccccc2n1 | 71 | 44.7 | – | – | – |
